SMILES strings stand for the structures. Converted amounts (≈) assume the structure as drawn.

The text below walks through data of PubChem BioAssay AID1996.

For this data set the following is noted: buffer; pH 7.4; 200.0 µM.
For `CN(C(=O)COC(=O)c1cc(=O)[nH]c2ccccc12)c1ccccc1`, the kinetic solubility (in general, solubility judged after dilution from a stock solution rather than from solid) was found to be 11.6 µg/mL (≈ 34.5 µM).
To `O=C(COC(=O)c1ccc(Cl)nc1)Nc1ccc2c(c1)CCC2` belongs 5.3 µg/mL (≈ 16 µM); to `Cc1ccc(C(=O)C2CCN(S(=O)(=O)c3c(C)noc3C)CC2)cc1`, 13.6 µg/mL (≈ 37.5 µM).
To `O=C(NCCc1ccc([N+](=O)[O-])cc1)c1ccccc1` belongs 14.2 µg/mL (≈ 52.5 µM); to `O=S1(=O)CCN(Cc2cccc(C(F)(F)F)c2)CC1`, 41.9 µg/mL (≈ 143 µM); to `O=C(Nc1ccc(NC(=O)c2ccco2)nc1)c1cccc(F)c1`, 1.9 µg/mL (≈ 5.84 µM).
On to `CCOc1ccc(/C=N/NC(=O)Cn2ccnc2C)cc1`, for which the solubility (kinetic) was > 42.9 µg/mL.
To `CC(C)=CCN1CCN(Cc2c[nH]c3ccccc23)CC1CCO` (stereo unspecified) belongs > 49.1 µg/mL; to `CCCn1c(S(=O)(=O)O)nc2ccccc21`, > 36 µg/mL; to `Cn1ccsc1=NC(=O)c1cccc(OC(F)F)c1`, > 42.6 µg/mL.
To `COC(=O)C(NC(=O)CN1C(=O)c2ccccc2C1=O)c1ccc(O)c(OC)c1` (stereo unspecified) belongs 55.8 µg/mL (≈ 140 µM).
As to `COc1cc(C(=O)NCc2cccs2)ccc1OCc1c(C)noc1C`, the kinetic solubility was 5.9 µg/mL (≈ 15.8 µM).
In the case of `C=CCc1c(C)nc(SCc2ccccc2)[nH]c1=O` it was 10.4 µg/mL (≈ 38.2 µM); in that of `OC(CNCc1ccccc1C(F)(F)F)C(F)(F)F` (stereo unspecified), > 43.1 µg/mL.
`O=C(NCCCO)C(=O)Nc1cc2c3c(c1)CCC(=O)N3CCC2` had a kinetic solubility of 48.8 µg/mL (≈ 147 µM).
In the case of `C/C(=N\OCc1ccccc1C#N)c1cc2ccccc2o1` it was 1.1 µg/mL (≈ 3.79 µM); in that of `Cc1ccc(C)c(C(C)NC(=O)C2CCCC2)c1` (stereo unspecified), 33.2 µg/mL (≈ 135 µM); in that of `CC(OC(=O)[C@@H](NC(=O)c1ccco1)C(C)C)C(=O)Nc1ncc(Cl)cc1Cl` (stereo partly specified), > 64.2 µg/mL.
As to `Cn1cc(-c2ccccc2C(=O)O)c(=O)c2ccccc21`, the solubility (kinetic) was > 41.9 µg/mL.
To `CC1CCN(C(=O)c2ccccc2NC(=O)c2cccs2)CC1` belongs > 49.3 µg/mL; to `O=C(O)c1cccc(S(=O)(=O)N2CCc3ccccc3C2)c1`, 26.2 µg/mL (≈ 82.6 µM).
In the case of `C=CCNC(=O)c1cc2c(=O)n3ccccc3nc2s1` it was 10.4 µg/mL (≈ 36.4 µM); in that of `Cn1ccnc1C(O)(c1ccccc1)c1nccn1C`, > 40.2 µg/mL.
To `N#Cc1ccccc1NC(=O)COC(=O)/C=C/c1ccc(S(=O)(=O)N2CCOCC2)cc1` belongs 5.7 µg/mL (≈ 12.5 µM); to `COC(=O)c1cc(C(=O)c2ccc(C(C)(C)C)cc2)c[nH]1`, 18.2 µg/mL (≈ 63.8 µM).
Molecule `CCC(=O)NC(=S)Nc1ccc(NC(=O)c2cccnc2)cc1` returned a solubility (kinetic) of 13.1 µg/mL (≈ 39.9 µM).
In the case of `COc1ccc(NC(=O)c2cc(C)n(Cc3cccs3)c2C)cc1` it was 1.3 µg/mL (≈ 3.82 µM).
Molecule `COc1ccc(CCNC(=O)C(=O)N2CCCC2)cc1OC` displayed a solubility (kinetic) of 39.7 µg/mL (≈ 130 µM).
Take `O=S(=O)(c1cc(Cl)ccc1Cl)N1CCN2CCCC2C1` (stereo unspecified): the solubility (kinetic) amounted to 47.5 µg/mL (≈ 142 µM).
To `O=C(NC1=NCCS1)c1ccccc1Br` belongs > 42.8 µg/mL.
`CC1CN(C(=O)COC(=O)c2c(Cl)cccc2Cl)CC(C)O1` (stereo unspecified) registered a kinetic solubility of 49.5 µg/mL (≈ 143 µM).
With `Cn1c(SCc2ccc(Br)cc2)nc2c(c1=O)SCC2`, the kinetic solubility is < 0.4 µg/mL.
In the case of `Cc1ccc(CNC(=O)COC(=O)c2cc(=O)[nH]c3ccccc23)cc1` it was 5.5 µg/mL (≈ 15.7 µM); in that of `Cc1nc(S(=O)(=O)Nc2ccc3c(c2)OCCO3)cn1C`, 13.1 µg/mL (≈ 42.3 µM); in that of `CC(C)(C)c1cc(/C=C2\NC(=O)NC2=O)cc(C(C)(C)C)c1O`, 6.6 µg/mL (≈ 20.9 µM).
The molecule `CCOC(=O)COn1c(=O)c(-c2ccccc2)[n+]([O-])c2ccccc21` registered a kinetic solubility of 35.2 µg/mL (≈ 103 µM).
In the case of `O=C(c1cc(Br)c(Br)s1)N1CCc2ccccc2C1` it was 7 µg/mL (≈ 17.5 µM); in that of `CC(=O)c1ccc(N2CCN(C(=O)Cc3cccs3)CC2)cc1`, 47.3 µg/mL (≈ 144 µM); in that of `CCOC(=O)c1c(C)[nH]c(C)c1S(=O)(=O)N1CCCCC1`, > 47.2 µg/mL.
To `Nc1c(NCc2ccccc2)c(=O)c1=O` belongs 5.9 µg/mL (≈ 29.2 µM).
In the case of `N#Cc1c(Nc2ccc(Cl)cc2)s[nH]c1=O` it was > 37.8 µg/mL.
